Reference: patent US6767715B2, “Nitroso compounds and their use as spin traps” (Randox Laboratories Ltd., priority 2000, dated 2004)
“Also recorded” adds a separate entry of the source.

Key:
[1] = Reaction of spin traps with nitric oxide, ESR detection; conditions: for spin trap concentration giving maximum signal intensity / plateau / time at which reaction with NO reaches a maximum: NO 1 mM; for spin trap concentration giving maximum signal intensity / plateau: DBNBS incubated 26 hr, DCNBS 22 hr; for time at which reaction with NO reaches a maximum / limit of detection for NO (S/N ratio equals 3) / limit of quantitation for NO (S/N ratio equals 10): spin trap 0.15M; for time at which reaction with NO reaches a maximum: Tris-HCl pH 7.4; for limit of detection for NO (S/N ratio equals 3) / limit of quantitation for NO (S/N ratio equals 10): DBNBS 50 hr, DCNBS 20 hr, linear part of curve 0 to 10 μM
Description: (§1) ESR spectra were obtained using a prototype spectrometer (Jeol (U.K) Ltd., Welwyn Garden City, England) equipped with a TE011 cylindrical cavity. Samples were analysed at room temperature in a WG-LC-11 quartz flat cell (Wilmad-Glass, Buena, N.J.). In general the instrument parameters were: microwave frequency 9.2 GHz, microwave power 4 mW, centre field (CF) 336.7 mT, sweep width (SW) ±5 mT, number of data points 4095, modulation frequency 100 kHz. For the spin traps reacted with horseradish peroxidase/H2O2/sulphite: sweep time 200 s, time constraint 0.1 s, modulation width 0.05. For the spin traps reacted with the oxidant and NO; sweep time 150 s, time constraint 0.3 s, modulation width 0.2 mT. A JEOL ES-DM1 digital manganese oxide marker (0.03 mm of the glass tube inserted per unit on the dial setting) with a dial setting of 500 was used to ensure the reproducibility between samples and to identify the position of the signals in the microwave field.
The apparatus shown in FIG. 1 was flushed with nitrogen for 15 min. The vacutainer containing deionised water (4 ml) was then connected to the system and flushed with nitrogen for a further 15 min, to remove any oxygen present in the system, and therefore to prevent the formation of nitrogen dioxide. The NO gas was bubbled through the deionised water via the system for 45 min. The small amount of nitrogen dioxide present in the pressurised NO container was removed by bubbling through two bottles of 5M NaOH. The gas was then bubbled through a scrubbing bottle containing deionised water to remove any alkaline aerosol contamination. Any excess of NO after the deionised water step was bubbled through a scrubbing bottle containing 1M potassium permanganate/1M NaOH to prevent excess NO escaping from the fume hood. The concentration of NO in the resulting NO-saturated water was taken to be 2.0 mM.
Samples of DBNBS, DCNBS and DMNBS were weighed into vacutainers and evacuated. Tris-HCl buffer, 0.01M, pH 7.4, was deoxygenated by bubbling with nitrogen gas for 15 min. The deoxygenated buffer was added to the spin traps by a gas tight syringe to give a final spin trap concentration of 0.30M. The spin trap solution was briefly flushed with nitrogen and was then ready for use.
NO-saturated water (1 ml) was added to 1 ml of each of the spin trap solutions (DBNBS, DCNBS and DMNBS). The final concentrations of the spin traps were 0.15M and NO 1 mM. Parallel blanks were carried out by adding 1 ml of deoxygenated water to the spin trap solutions. At each time point samples were taken from test solutions and blanks for ESR spectroscopic analysis and the blank was substracted from the spectra.
The spin trap solutions were prepared as above to give final concentrations of 0.05, 0.1, 0.15, 0.2 and 0.25M in the reaction mixtures and the parallel blanks. The saturated NO solution (0.5 ml, final concentration 1 mM) was added to the test solutions and the deoxygenated water (0.5 ml) was added to the blanks. The reaction mixtures with DBNBS were incubated for 26 hr. while those with DCNBS were incubated for 22 hr. before analysis by ESR spectroscopy. The blanks were subtracted from their parallel test spectra respectively.
The concentration of NO in NO saturated water is taken to be 2.0 mM. This NO solution was diluted with deoxygenated water to give final concentrations in the reaction mixture of 0, 0.25, 0.5, 1, 2.5, 5, 10, 50 and 100 μM. The NO solution was added to DBNBS and to DCNBS to give a final spin trap concentration of 0.15M. The blank (or zero point) was ran by adding 0.5 ml of deoxygenated deionised water to the spin trap solutions. The reaction mixture containing DBNBS was incubated for 50 hr, and that containing DCNBS was incubated for 20 hr. The signal to noise ratio was calculated from each spectrum. All withdrawals and additions of solutions were carried out using a gas-tight syringe.

[2] = Spin trapping of SO3− (horseradish peroxidase/H2O2/sulphite), ESR detection; conditions: for optimal concentration of spin trap: 25 min incubation at room temperature; for signal/marker ratio: at optimal concentration (DBNBS 17.72 mM, DCNBS 20-25 mM)
Description: as §1
Solutions of the spin traps DBNBS, DCNBS and DMNBS (40 mM) (25, 50, […], 110.75, 125 and 156.25 μl for final concentrations of 4, 8, 14.68, 17.72, 20 and 25 mM in PBS) were added to 8 μl horseradish peroxidase (91 μM in PBS), 8 μl K2SO3 (100 mM in water) and 12.5 μl H2O2 (5 mM in PBS). The difference in the volume comprised PBS (pH 7.4). The final volume of the reaction mixture was 250 μl. The reaction mixture was mixed thoroughly and analysed by ESR spectroscopy after 25 min incubation at room temperature. Controls were run using individual reactants as well as the reaction mixture above in the absence of the spin traps.

[3] = Reaction of spin traps with oxidant in CAPD dialysate, ESR detection; conditions: oxidant system; for final nominal concentration at which spin trap reached an excess: 60 μl dialysate, 25 min at room temperature; for signal/marker ratio: DBNBS at 1.2 mM, DCNBS at 2.5 mM
Description: as §1
Dialysate from a patient with renal failure on Continuous Ambulatory Peritoneal Dialysis (CAPD) was used for this study. The dialysate was collected when the dialysate bag was changed.
Solutions of 10 mM DBNBS and DCNBS (5, 8, 12, 25 and 30 μl for final concentrations of 0.5, 0.8, 1.2, 2.5 and 3.0 mM) were added to 60 μl of the dialysate. The difference in volume comprised PBS. The reaction mixture was mixed thoroughly and analysed by ESR spectroscopy after 25 min incubation at room temperature.

[4] = Solubility of the spin trap in aqueous systems; assay type: physicochemical; conditions: Sodium Salt

SMILES	spin trap concentration giving maximum signal intensity / plateau [1]	time at which reaction with NO reaches a maximum [1]	limit of detection for NO (S/N ratio equals 3) [1]	limit of quantitation for NO (S/N ratio equals 10) [1]	optimal concentration of spin trap ([2]; SO3− system)	signal/marker ratio ([2]; SO3− system)	final nominal concentration at which spin trap reached an excess [3]	signal/marker ratio [3]	solubility compared with DBNBS [4]	sensitivity relative to DBNBS ([2]; SO3− system, at optimal concentrations)	ESR signal height for SO3− adduct relative to DBNBS-d2-15N ([2]; SO3− generated from HRP, H2O2, SO3 2−)
O=Nc1c(Br)cc(S(=O)(=O)[O-])cc1Br.[Na+] [DBNBS, 3,5-dibromo-4-nitrosobenzenesulphonate, sodium salt, reference compound]	0.15 M	approximately 50 hr	0.23 µM	0.92 µM	17.72 mM	3.33	ca. 1.2 mM	0.516	–	–	–
O=Nc1c(Cl)cc(S(=O)(=O)[O-])cc1Cl.[Na+] [DCNBS, 3,5-Dichloro-4-nitrosobenzenesulphonate, Sodium Salt]	0.05 to 0.40 M	20 to 24 h	4.06 µM	17.30 µM	20 to 25 mM	10.62	2.5 mM	0.521	improved solubility; also recorded: more soluble than DBNBS	3 times	–
Cc1cc(S(=O)(=O)[O-])cc(C)c1N=O.[Na+] [DMNBS, 3,5-Dimethyl-4-nitrosobenzenesulphonate, Sodium Salt]	–	24 to 28 h	–	–	–	–	–	–	–	–	more than three times
